Results reported in patent US12240859B2, “Turbinmicin compounds, compositions and uses thereof” (Wisconsin Alumni Research Foundation, priority 2019, dated 2025).
≈ marks a conversion by molar mass, not a printed value. Where two headings read alike, the source gives them in different places. Values belong to the compound of their own block, whether it stands above or below them. *1 amine or outer side, *2 acyl side, *3 side chain or, on linkers, in order; H or OH if unused. Where a SMILES comes first, the peptide text is derived from it. Bridges are numbered along the chain shown (N, C = ends). [ ]: non-standard residue; d: D form. The star is where a group is joined. hTyr(3S-OH,4S-OH,3'-OSO3H) = N[C@H](C(=O)O)[C@H](O)[C@@H](O)c1ccc(O)c(OS(=O)(=O)O)c1; Orn(4R-OH,5R-OH) = O=C([C@H](C[C@@H](O)[C@@H](O)N[*:3])N[*:1])[*:2]; Pro(3S-OH,4S-Me) = C[C@H]1CN[C@H](C(=O)O)[C@H]1O; X1 = CCCCCOc1ccc(-c2cc(-c3ccc(C(=O)*)cc3)no2)cc1; Gln(3R-OH) = NC(=O)C[C@@H](O)[C@H](N)C(=O)O; Hyp = O=C(O)[C@@H]1C[C@@H](O)CN1

How the values were obtained:
[1] = test system: five Candida isolates, C. albicans K-1, C. tropicalis 98-234, C. auris B 11211, C. glabrata 4720, C. albicans SN 250; assay: In vitro MIC susceptibility testing, positive control over the Candida isolates; type: cell-based; details: RPMI medium
Protocol: (§1) In vitro MIC susceptibility testing. […]. Amphotericin B was used as a positive control and the MICs range were 0.25-1.5 μg/mL. Six untreated media controls were included on each plate. The plates were incubated at 33° C. for 72 h. The MICs were determined as the lowest concentration that inhibited visible growth. The MICs were read at 24, 48, and 72 hours, respectively. […]

C. auris = assay: In vitro MIC susceptibility testing, broth microdilution; type: cell-based, Candida auris; parameters: unit: ug/mL
Protocol: as §1

C. albicans = assay: as above; type: cell-based, Candida albicans
Protocol: as §1

C. tropicalis = assay: as above; type: cell-based; details: Candida tropicalis, strain 98-234; read-out: MIC
Protocol: In vitro MIC susceptibility testing. […] The plates were incubated at 33° C. for 72 h. The MICs were determined as the lowest concentration that inhibited visible growth. The MICs were read at 24, 48, and 72 hours, respectively.

Aspergillus fumigatus = assay: In vitro MIC susceptibility testing; type: cell-based
Protocol: as §1

C. glabrata = assay: In vitro MIC susceptibility testing, broth microdilution; type: cell-based, Candida glabrata; details: Nakaseomyces glabratus
Protocol: as §1

A. fumigatus F11628 = details: same Cyp51 mutant A. fumigatus strain, comparison; cited from earlier work
[2] = Candidozyma auris, strain B11104
[3] = Candidozyma auris, strain B11203
[4] = Candidozyma auris, strain B11211, resistant to amphotericin B, fluconazole, micafungin, read-out: MIC
[5] = Candidozyma auris, strain B11219
[6] = Candidozyma auris, strain B11220, read-out: MIC
[7] = Candidozyma auris, strain B11221
[8] = Candidozyma auris, strain B11785, read-out: MIC
[9] = Candidozyma auris, strain B11799, read-out: MIC
[10] = Candidozyma auris, strain B11801, read-out: MIC
[11] = Candidozyma auris, strain B11804, read-out: MIC
[12] = Candida albicans, strain 98-17, read-out: MIC
[13] = Candida albicans, strain 98-210, read-out: MIC
[14] = Candida albicans, strain 580, read-out: MIC
[15] = Candida albicans, strain K1 (K-1), read-out: MIC
[16] = positive controls, A. fumigatus F11628, read-out: MIC

- MICs range [1]: 0.25 to 1.5 µg/mL
- MIC (C. auris; strain B11104): 1 µg/mL (≈ 1.08 µM)
- MIC (C. auris; strain B11203): 4 µg/mL (≈ 4.33 µM)
- MIC (C. auris; strain B11211, resistant to amphotericin B, fluconazole, micafungin): 1.5 µg/mL (≈ 1.62 µM)
- MIC (C. auris; strain B11219): 3 µg/mL (≈ 3.25 µM)
- MIC (C. auris; strain B11220): 0.38 µg/mL (≈ 0.411 µM)
- MIC (C. auris; strain B11221): 0.38 µg/mL (≈ 0.411 µM)
- MIC (C. auris; strain B11785): 1.5 µg/mL (≈ 1.62 µM)
- MIC (C. auris; strain B11799): 0.5 µg/mL (≈ 0.541 µM)
- MIC (C. auris; strain B11801): 6 µg/mL (≈ 6.49 µM)
- MIC (C. auris; strain B11804): 0.5 µg/mL (≈ 0.541 µM)
- MIC (C. albicans; strain 98-17): 0.25 µg/mL (≈ 0.271 µM)
- MIC (C. albicans; strain K1 (K-1)): 0.25 µg/mL (≈ 0.271 µM)
Compound: C[C@@H]1[C@H](O)[C@@H](C)/C=C/C=C/C=C/C=C/C=C/C=C/C=C/[C@H](O[C@@H]2O[C@H](C)[C@@H](O)[C@H](N)[C@@H]2O)C[C@@H]2O[C@](O)(C[C@@H](O)C[C@@H](O)[C@H](O)CC[C@@H](O)C[C@@H](O)CC(=O)O[C@H]1C)C[C@H](O)[C@H]2C(=O)O [Amphotericin B]

Compound: OC(Cn1cncn1)(Cn1cncn1)c1ccc(F)cc1F [Fluconzole, fluconazole]
- MIC (C. auris; [2]): > 256 µg/mL
- MIC (C. auris; [3]): 256 µg/mL (≈ 836 µM)
- MIC (C. auris; [4]): > 256 µg/mL
- MIC (C. auris; [5]): > 256 µg/mL
- MIC (C. auris; [6]): 4 µg/mL (≈ 13.1 µM)
- MIC (C. auris; [7]): 128 µg/mL (≈ 418 µM)
- MIC (C. auris; [8]): 8 µg/mL (≈ 26.1 µM)
- MIC (C. auris; [9]): 16 µg/mL (≈ 52.2 µM)
- MIC (C. auris; [10]): 16 µg/mL (≈ 52.2 µM)
- MIC (C. auris; [11]): 2 µg/mL (≈ 6.53 µM)
- MIC (C. tropicalis): 32 µg/mL (≈ 104 µM)
- MIC (C. albicans; [12]): 16 µg/mL (≈ 52.2 µM)
- MIC (C. albicans; [13]): 16 µg/mL (≈ 52.2 µM)
- MIC (C. albicans; [14]): 4 µg/mL (≈ 13.1 µM)
- MIC (C. albicans; [15]): 0.5 µg/mL (≈ 1.63 µM)

- MIC (Aspergillus fumigatus; [16]): 8 µg/mL (≈ 18.3 µM)
Compound: C[C@@H](c1nc(-c2ccc(C#N)cc2)cs1)[C@](O)(Cn1cncn1)c1cc(F)ccc1F [Isavuconazole]

Compound: CCCCCOc1ccc(-c2cc(-c3ccc(C(=O)N[C@H]4C[C@@H](O)[C@@H](O)NC(=O)[C@@H]5[C@@H](O)[C@@H](C)CN5C(=O)[C@H]([C@H](O)CC(N)=O)NC(=O)[C@H]([C@H](O)[C@@H](O)c5ccc(O)c(OS(=O)(=O)O)c5)NC(=O)[C@@H]5C[C@@H](O)CN5C(=O)[C@H]([C@@H](C)O)NC4=O)cc3)no2)cc1 [Micafungin, micafungin] (X1-[Orn(4R-OH,5R-OH)]T[Hyp][hTyr(3S-OH,4S-OH,3'-OSO3H)][Gln(3R-OH)][Pro(3S-OH,4S-Me)]; lactam 1-C)
- MIC (C. glabrata; strain 513): 0.016 µg/mL (≈ 0.0126 µM)
- MIC (C. glabrata; strain 729, Fks2_HS1_S663P): 8 µg/mL (≈ 6.3 µM)
- MIC (C. glabrata; strain 4720, Fks2_HS1_S645P, echinocandin resistant): 4 µg/mL (≈ 3.15 µM)
- MIC (C. glabrata; strain 5592): 0.016 µg/mL (≈ 0.0126 µM)
- MIC (C. glabrata; strain 14378, Fks1_HS1_S629P): 2 µg/mL (≈ 1.57 µM)
- MIC (C. auris; [2]): 0.25 µg/mL (≈ 0.197 µM)
- MIC (C. auris; [3]): 0.25 µg/mL (≈ 0.197 µM)
- MIC (C. auris; Candidozyma auris, strain B11211, resistant to amphotericin B, fluconazole, micafungin): 4 µg/mL (≈ 3.15 µM)
- MIC (C. auris; [5]): 4 µg/mL (≈ 3.15 µM)
- MIC (C. auris; Candidozyma auris, strain B11220): 0.12 µg/mL (≈ 0.0945 µM)
- MIC (C. auris; [7]): 1 µg/mL (≈ 0.787 µM)
- MIC (C. auris; Candidozyma auris, strain B11785): 0.5 µg/mL (≈ 0.394 µM)
- MIC (C. auris; Candidozyma auris, strain B11799): 2 µg/mL (≈ 1.57 µM)
- MIC (C. auris; Candidozyma auris, strain B11801): 1 µg/mL (≈ 0.787 µM)
- MIC (C. auris; Candidozyma auris, strain B11804): 0.5 µg/mL (≈ 0.394 µM)
- MIC (C. albicans; Candida albicans, strain 98-17): 0.06 µg/mL (≈ 0.0472 µM)
- MIC (C. albicans; Candida albicans, strain 98-210): 0.03 µg/mL (≈ 0.0236 µM)
- MIC (C. albicans; Candida albicans, strain 580): 0.016 µg/mL (≈ 0.0126 µM)
- MIC (C. albicans; Candida albicans, strain K1 (K-1)): 0.03 µg/mL (≈ 0.0236 µM)

Compound: CC[C@@H]([C@H](C)O)n1ncn(-c2ccc(N3CCN(c4ccc(OC[C@@H]5CO[C@@](Cn6cncn6)(c6ccc(F)cc6F)C5)cc4)CC3)cc2)c1=O [Posaconazole, posaconazole]
- MIC (Aspergillus fumigatus; [16]): 8 µg/mL (≈ 11.4 µM)
- MIC (Aspergillus fumigatus; strain 293, read-out: MIC): 0.5 µg/mL (≈ 0.713 µM)
- MIC (Aspergillus fumigatus; strain F14532, Cyp51 M220T): 1 µg/mL (≈ 1.43 µM)
- MIC (Aspergillus fumigatus; strain F16216, Cyp51 L98H + TR): 2 µg/mL
- MIC (C. auris; Candidozyma auris, strain B11104, read-out: MIC): 0.5 µg/mL (≈ 0.713 µM)
- MIC (C. auris; Candidozyma auris, strain B11203, read-out: MIC): 0.12 µg/mL (≈ 0.171 µM)
- MIC (C. auris; [4]): 0.5 µg/mL (≈ 0.713 µM)
- MIC (C. auris; Candidozyma auris, strain B11219, read-out: MIC): 0.5 µg/mL (≈ 0.713 µM)
- MIC (C. auris; [6]): 0.06 µg/mL (≈ 0.0856 µM)
- MIC (C. auris; Candidozyma auris, strain B11221, read-out: MIC): 0.5 µg/mL (≈ 0.713 µM)
- MIC (C. auris; [8]): 0.016 µg/mL (≈ 0.0228 µM)
- MIC (C. auris; [9]): 0.06 µg/mL (≈ 0.0856 µM)
- MIC (C. auris; [10]): 0.12 µg/mL (≈ 0.171 µM)
- MIC (C. auris; [11]): 0.03 µg/mL (≈ 0.0428 µM)
- dose required to achieve 1-log kill (A. fumigatus F11628): 150 mg/kg/24 h
- MIC (C. albicans; [12]): 0.12 µg/mL (≈ 0.171 µM)
- MIC (C. albicans; [13]): 0.12 µg/mL (≈ 0.171 µM)
- MIC (C. albicans; [14]): 0.06 µg/mL (≈ 0.0856 µM)
- MIC (C. albicans; [15]): 0.03 µg/mL (≈ 0.0428 µM)
